Test results taken from the supplement of paper PMC10307832.

Assays:
Assay in all cases: relative viability (nuclei count vs DMSO), 5 days (fraction); higher = more cells survive
[1] = compound: C1=CC(=CC=C1NC(=S)NNC2=C(C=C(C=C2[N+](=O)[O-])C(F)(F)F)[N+](=O)[O-])F [Kobe2602] + N=C(N)NC(=N)NCCc1ccccc1 [Phenformin] (partner 250 µM)
Summary of the method: (§1)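 For relative viability, nuclei counts in treated wells were divided by those in vehicle wells. Lung cancer cell lines had been pin-tool dosed in 1536-well plates the day after seeding and cultured for 5 days, then fixed and stained in one step (final 0.05% Triton X-100, 1% formaldehyde, 1 ug/ml Hoechst) and imaged at 4×. Doses were one drug alone or a fixed anchor-drug dose plus five library-drug doses (not always all listed) in √10 steps, and values are duplicate-plate medians.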

[2] = compound: COc1cc2nccc(Oc3ccc(NC(=O)C4(C(=O)Nc5ccc(F)cc5)CC4)cc3)c2cc1OC [Cabozantinib] + CCNC(=O)c1noc(-c2cc(C(C)C)c(O)cc2O)c1-c1ccc(CN2CCOCC2)cc1 [Luminespib] (partner 0.01 µM)
Summary of the method: as §1

[3] = compound: COc1cc2nccc(Oc3ccc(NC(=O)C4(C(=O)Nc5ccc(F)cc5)CC4)cc3)c2cc1OC [Cabozantinib] + C[C@@H](Oc1cc(-c2cnn(C3CCNCC3)c2)cnc1N)c1c(Cl)ccc(F)c1Cl [Crizotinib] (partner 1 µM)
Summary of the method: as §1

[4] = compound: O[C@@H](COc1cccc2ncccc12)CN1CCN([C@@H]2c3ccccc3[C@@H]3[C@H](c4ccccc42)C3(F)F)CC1 [Zosuquidar] + CS(=O)(=O)CCNCc1ccc(-c2ccc3ncnc(Nc4ccc(OCc5cccc(F)c5)c(Cl)c4)c3c2)o1 [Lapatinib] (partner 2 µM)
Summary of the method: as §1

Cell Line	relative viability ([1]; first compound 0.2 µM)	relative viability ([1]; first compound 0.6325 µM)	relative viability ([1]; first compound 2 µM)	relative viability ([1]; first compound 6.325 µM)	relative viability ([1]; first compound 20 µM)	relative viability ([2]; first compound 0.06325 µM)	relative viability ([2]; first compound 0.2 µM)	relative viability ([2]; first compound 0.6325 µM)	relative viability ([2]; first compound 2 µM)	relative viability ([3]; first compound 0.06325 µM)	relative viability ([3]; first compound 0.2 µM)	relative viability ([3]; first compound 0.6325 µM)	relative viability ([3]; first compound 2 µM)	relative viability ([4]; first compound 0.01 µM)	relative viability ([4]; first compound 0.03162 µM)	relative viability ([4]; first compound 0.1 µM)	relative viability ([4]; first compound 0.3162 µM)	relative viability ([4]; first compound 1 µM)	relative viability ([2]; first compound 0.02 µM)	relative viability ([3]; first compound 0.02 µM)
NCI-H23	0.75	0.782	0.762	0.723	0.814	0.218	0.199	0.229	0.205	0.634	0.503	0.473	0.413	1.15	1.16	1.38	1.23	1.15		
NCI-H322M	0.798	0.857	0.808	0.826	0.771	1.14	0.817	0.969	0.941	1.04		0.945	0.861	0.552	0.63	0.417	0.582	0.567	0.922	1.02
NCI-H358	0.381	0.391	0.323	0.371	0.353	0.549		0.322	0.136	0.708	0.576	0.401	0.382	0.475	0.415	0.366	0.55	0.492		0.717
NCI-H460	0.516	0.513	0.614	0.514	0.499	0.0334	0.0334	0.0351	0.0448	0.895	0.902	0.926	0.929	0.927	1	0.983	0.977	1.04	0.0282	1.01
NCI-H520	0.539	0.582	0.632	0.654	0.539	0.198	0.249	0.237	0.189	0.843	0.758	0.644	0.596	0.878	0.827	0.569	0.855	0.982	0.257	1.03
NCI-H596	0.717	0.816	0.672	0.614	0.737	1.26	1.02	1.08	0.907	1.06	0.87	1.01	0.888	1.11	1.07	1.08	1.13	1.13	0.905	1.06
NCI-H647	0.554	0.549	0.655	0.481	0.441	0.138	0.264	0.251	0.368	1.58	1.05	1.07	0.877	1.04	1.13	1.03	1.13	1.14	0.155	1.23
NCI-H650	0.454	0.538	0.471	0.457	0.452	0.784	0.952	0.751	0.724	0.692	0.836	0.792	0.757	0.845	0.879		1.49	0.881		0.857
NCI-H661	0.273	0.277	0.261	0.298	0.298	0.929	1.01	0.957	0.938	0.991	1.13	0.918	1.03	0.6	0.423	0.399	0.639	0.559	0.904	
NCI-H727	0.594	0.559	0.535	0.52	0.633	0.453	0.643	0.362	0.312	0.866	0.786	1.03	0.896	0.846	0.795	0.748	1.02	0.94	0.285	0.934
NCI-H838	0.549	0.71	0.574	0.577	0.554	0.342	0.3	0.259	0.34	0.925	0.834	0.787	0.799	1.04	0.765	0.858	1.18	1.06	0.369	1.03
NCI-H1355	0.479	0.479	0.476	0.415	0.433	0.852	0.682	0.738	0.871	1.16	1.09	1.05	1.15	0.993	1	0.759	1.11	1	0.806	1.11
NCI-H1437	0.335	0.282	0.279	0.297	0.352	1.14	1.13	1.09	1	1	0.955	0.976	0.792	0.825	0.669	0.747	0.908	0.792	1.14	1.02
NCI-H1563	0.684	0.719	0.675	0.668	0.676	0.52	0.508	0.527	0.531	1.03	0.904	0.77	0.802	0.99	0.81	0.813	1.04	0.855	0.507	0.948
NCI-H1650	0.483	0.57	0.395	0.388	0.366	0.202	0.185	0.185	0.169	1.23	0.911	1.04	0.911	0.783	0.696	0.684	1.22	0.875	0.187	1.02
NCI-H1651	0.415	0.37	0.356	0.333	0.414	0.879	0.908	0.733	0.946	0.866	0.885	0.846	0.842	0.866	0.902	0.865	1.02	0.943	0.881	0.821

Cell Line	relative viability ([1]; first compound 0.2 µM)	relative viability ([1]; first compound 0.6325 µM)	relative viability ([1]; first compound 2 µM)	relative viability ([1]; first compound 6.325 µM)	relative viability ([1]; first compound 20 µM)	relative viability ([2]; first compound 0.06325 µM)	relative viability ([2]; first compound 0.2 µM)	relative viability ([2]; first compound 0.6325 µM)	relative viability ([2]; first compound 2 µM)	relative viability ([3]; first compound 0.06325 µM)	relative viability ([3]; first compound 0.2 µM)	relative viability ([3]; first compound 0.6325 µM)	relative viability ([3]; first compound 2 µM)	relative viability ([4]; first compound 0.01 µM)	relative viability ([4]; first compound 0.03162 µM)	relative viability ([4]; first compound 0.1 µM)	relative viability ([4]; first compound 0.3162 µM)	relative viability ([4]; first compound 1 µM)	relative viability ([2]; first compound 0.02 µM)	relative viability ([3]; first compound 0.02 µM)
NCI-H1666	0.594	0.572	0.534	0.581	0.573	1	1.02	1.04	1.06	1	1.05	1.1	1.08	0.534	0.713	0.875	0.754	0.579	0.968	0.965
NCI-H1734	0.413	0.408	0.422	0.347	0.388	0.206	0.22	0.203	0.186	0.761	0.687	0.73	0.635	1.03	1.02	1.1	1.07	1.13	0.186	0.809
NCI-H1755	0.615	0.608	0.601	0.662	0.568	0.419	0.54	0.344	0.403	0.964	0.942	0.797	0.781	1	0.946	0.951	1.04	1.08	0.33	0.972
NCI-H1792	0.253	0.344	0.249	0.316	0.31	0.404	0.501	0.334	0.325	1.1	0.999	0.962	1.03	0.9	0.893	0.837	0.839	0.795		0.841
NCI-H1915	0.366	0.38	0.37	0.366	0.361	0.978	0.779	0.871	0.776	0.904	0.888	0.896	0.996	0.988	0.996	0.953	1.05	1.01	0.915	0.923
NCI-H1944	0.212	0.216	0.206	0.201	0.209	0.818	0.754	0.719	0.762	1.26	1.1	1.07	1.21	0.822	0.797	0.585	0.925	0.794	0.739	
NCI-H1975	0.433	0.442	0.427	0.379	0.388	0.258	0.233	0.219	0.212	1.05	0.948	1.09	0.83	0.796	0.7	0.945	0.991	0.858	0.221	1.09
NCI-H1993	0.51	0.453	0.503	0.501	0.515	0.738	0.667	0.828	0.73	1.04	0.682	0.856	0.884	0.965	0.908	0.751	1.04	0.79	0.787	0.798
NCI-H2009	0.454	0.503	0.504	0.421	0.305	1.1	1	1.1	1.14	1.09	1.15	1.09	1.04	0.931	0.905	0.891	1.09	0.849	1.13	1.11
NCI-H2023	0.419	0.442	0.432	0.352	0.244	0.68	0.635	0.641	0.539	0.755	0.714	0.601	0.724	0.848	0.856	0.712	1.45	0.955	0.839	0.746
NCI-H2085	0.682	0.687		0.684	0.708	0.498	0.464	0.467	0.432	0.921	0.992	0.898	0.799	0.796	0.754	0.475	0.826	0.778	0.472	0.949
NCI-H2087	0.437	0.47	0.462	0.471	0.438	0.185	0.193	0.168	0.158	0.831	0.75	0.871	0.99	0.931	0.776	1.06	1.19	1.19	0.163	0.95
NCI-H2126	0.552	0.53	0.521	0.513	0.494	0.973	0.969	0.89	1.1	1.04	1.01	1.04	1.02	0.75	0.753	0.639	0.755	0.733	0.871	1.03
NCI-H2170	0.414	0.475	0.423	0.406	0.403	0.952	0.587	0.857	0.849	1.4	1.27	1.15	1.19	0.256	0.282	0.256	0.308	0.283	0.729	1.33
NCI-H2228	0.35	0.449	0.359	0.295	0.361	0.167	0.175	0.122	0.134	0.496	0.505	0.403	0.315	1.2	0.937	0.956	1.06	1.21	0.162	0.581
NCI-H2347	0.529	0.48	0.375	0.469	0.407	0.661	0.778		0.515	0.771	0.46	0.786	0.584	0.888	0.931	0.908	1.06	0.925	0.411	0.761
